Where no end group is shown, it is not given here.

Results on three compounds are retold here after patent US6884772B1, “Depilatories and agents for external use” (Kao Corporation, priority 1999, dated 2005).

Assay [1] relates to dorsal part of a guinea pig. The assay is described as follows: Depilation inducing effects of endothelin (intracutaneous administration). The class given is in vivo. The following applies: 0.3 μg in 0.1% BSA/PBS, 50 μL/site, 10 days after the administration. The procedure: A solution of endothelin-1 (0.3 μg) in phosphate buffer solution (PBS), which contained 0.1% of bovine serum albumin (BSA), was intracutaneously administered (at 50 μL/site) to the dorsal part of a guinea pig.

In assay [2] the test system is dorsal parts of guinea pigs. In words: Growth-phase hair follicle inhibitory effects (number of hair shafts grown per unit area). It counts as in vivo, guinea pig. To be noted: 1 μg each, intracutaneous, 50 μL/site, fifth day after the administration (FIG. 1). The procedure: Solutions (1 μg, each) of endothelin-1, endothelin-2 and endotherin-3 in aliquots of phosphate buffer solution (PBS), which contained 0.1% of bovine serum albumin (BSA), were intracutaneously administered (at 50 μL/site) to the dorsal parts of guinea pigs, respectively, from which hair had been cut off by a hair clipper. Three days after the administration, hair was again cut off by a hair clipper from the administered sites. Two days after the cutting, the numbers of hair shafts grown per unit area at the administered sites were counted.

The subject of assay [3] is growth-phase hair follicle. The assay is described as follows: Structural changes of hair follicle structure (hematoxylin-eosin staining of dorsal skin). It counts as in vivo, guinea pig. The following applies: 0.3 μg intracutaneous. The procedure:
A solution of endothelin-1 (0.3 μg) in phosphate buffer solution (PBS), which contained 1.1% of bovine serum albumin (BSA), was intracutaneously administered (at 50 μL/site) to the dorsal part of a guinea pig. After that, samples were collected day after day from the administered dorsal skin, and tissue samples were prepared by hematoxylin-eosin staining.

Assay [4] has as its system hair follicle organs in growth phase from a human scalp tissue. In words: Growth inhibitory effects on organ-cultured hair follicles. The class given is cell-based. The procedure: From a human scalp tissue, hair follicle organs in growth phase were surgically isolated under a stereomicroscope. Following a conventional procedure [Philpott M.P., et al., J. Cell Sci., 97, 463-471 (1990), the isolated hair follicles were subjected to organ culture. Described specifically, endothelin-1 was added to William's E medium which contained L-glutamine (2mM), hydrocortisone (10ng/mL), insulin ([…]) sodium selenite (10 ng/mL) and transferrin (10 μg/mL).

With `CC[C@H](C)[C@H](NC(=O)[C@H](CC(=O)O)NC(=O)[C@H](CC(C)C)NC(=O)[C@H](Cc1c[nH]cn1)NC(=O)[C@@H]1CSSC[C@H](N)C(=O)N[C@@H](CO)C(=O)N[C@H]2CSSC[C@H](NC(=O)[C@H](CCC(=O)O)NC(=O)[C@H](CCCCN)NC(=O)[C@H](CC(=O)O)NC(=O)[C@H](CCSC)NC(=O)[C@H](CC(C)C)NC(=O)[C@H](CO)NC(=O)[C@H](CO)NC2=O)C(=O)N[C@@H](C(C)C)C(=O)N[C@@H](Cc2ccc(O)cc2)C(=O)N[C@@H](Cc2ccccc2)C(=O)N1)C(=O)N[C@H](C(=O)N[C@@H](Cc1c[nH]c2ccccc12)C(=O)O)[C@@H](C)CC` [Endothelin-1, endothelin-1], the “Hair shaft falling-off and formation of depilation spot at the administered site” value in assay [1] is “hair shaft falling-off and formation of a marked depilation spot were observed”. For the same compound, the “Number of hair shafts grown per unit area at the administered sites” value in assay [2] is given as “significant (p<0.01) decrease in the number of hair shafts”. Moreover, the Hair follicle histology entry was “regressed image of a growth-phase hair follicle was observed” in assay [3] (1st day after the administration (FIG. 2)) and “image of a follicular tissue in transition phase was presented” in assay [3] (3rd day after the administration (FIG. 2)). In addition, the “Percent regression of growth-phase hair follicles” value stood at 0.0% in assay [4] (10 ng/mL, Day 1 of incubation); 0.0% in assay [4] (10 ng/mL, Day 2 of incubation); 0.0% in assay [4] (100 ng/mL, Day 1 of incubation); 0.0% in assay [4] (100 ng/mL, Day 2 of incubation). Further, the “Grown hair follicle lengths (hair growth inhibition)” value in assay [4] (day 4 of incubation and the subsequent days, compared with control group without endothelin-1 (FIG. 3)) is “significant hair growth inhibitory effects were observed”. The “Structural change of incubated growth-phase hair follicles” value in assay [4] (during the incubation period (FIG. 4)) was “structural change of the endothelin-treated, growth-phase hair follicles into those similar to resting-phase hair follicles was observed”.
Consider “endothelin-3 (CTCFTYKDKECVYYCHLDIIW; ends and bridges not checked; cysteine pairing not given here; UniProt P14138 97-117, looked up) [endotherin-3, peptide composed of 21 amino acid residues, isoform of endothelin]”, for which, in assay [2], the “Number of hair shafts grown per unit area at the administered sites” value was “significant (p<0.01) decrease in the number of hair shafts”.
Same read-out and setting: with “endothelin-2 (CSCSSWLDKECVYFCHLDIIW; ends and bridges not checked; cysteine pairing not given here; UniProt P20800 49-69, looked up) [peptide composed of 21 amino acid residues, isoform of endothelin]” the entry was “significant (p<0.01) decrease in the number of hair shafts”.
